Assay results as given in PubChem BioAssay (NCI).
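Protocol summary: plate cells (96-well), add compound at 5 concentrations, incubate 48 h, interpolate endpoints linearly. GI50: concentration for 50% inhibition of growth. At the TGI there is no net growth.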

Legend:
Assay in all cases: NCI tumour cell line growth inhibition, 48 h
SNB-78 CNS = system: SNB-78 CNS
SR leukemia = system: SR leukemia
UO-31 renal = system: UO-31 renal
HOP-62 NSCLC = system: HOP-62 NSCLC
MOLT-4 leukemia = system: MOLT-4 leukemia
MALME-3M melanoma = system: MALME-3M melanoma
KM12 colon = system: KM12 colon
A498 renal = system: A498 renal
OVCAR-8 ovarian = system: OVCAR-8 ovarian
TK-10 renal = system: TK-10 renal

SMILES	GI50 (SNB-78 CNS)	TGI (SNB-78 CNS)	GI50 (SR leukemia)	TGI (SR leukemia)	TGI (UO-31 renal)	GI50 (HOP-62 NSCLC)	TGI (HOP-62 NSCLC)	GI50 (MOLT-4 leukemia)	TGI (MOLT-4 leukemia)	GI50 (MALME-3M melanoma)	TGI (MALME-3M melanoma)	GI50 (KM12 colon)	TGI (KM12 colon)	GI50 (A498 renal)	TGI (A498 renal)	GI50 (OVCAR-8 ovarian)	TGI (OVCAR-8 ovarian)	GI50 (TK-10 renal)	TGI (TK-10 renal)
CN(C)c1ccc(/C=c2\sc3nnc(Cc4ccccc4)n3c2=O)cc1	> 100 µM	> 100 µM	> 100 µM	> 100 µM	> 100 µM	> 100 µM	> 100 µM	> 100 µM	> 100 µM	> 100 µM	> 100 µM	> 100 µM	> 100 µM	> 100 µM	> 100 µM	> 100 µM	> 100 µM	> 100 µM	> 100 µM
O=S1Cc2ccccc2CSS1 (stereo unspecified)		62 µM		51.2 µM	32.6 µM				52.1 µM		26.2 µM		31.6 µM		> 100 µM		27.6 µM		33.2 µM
C/C(=N\NS(=O)(=O)c1ccccc1)c1ccc[n+]([O-])n1		> 100 µM		> 100 µM	> 100 µM		> 100 µM		> 100 µM				> 100 µM		> 100 µM		> 100 µM		
COc1c(OC2OC(CO)C(O)C(O)C2O)cc2c(c1OC)-c1ccc(OC)c(=O)cc1[C@@H](NC(C)=O)CC2 (stereo partly specified)		> 100 µM		> 100 µM	> 100 µM		> 100 µM		> 100 µM		> 100 µM		> 100 µM		> 100 µM		> 100 µM		> 100 µM
CCOc1ccccc1NC(=O)C(=O)c1c(O)c2ccc(O)cc2oc1=O		> 100 µM		> 100 µM	> 100 µM		> 100 µM		> 100 µM		> 100 µM		> 100 µM		> 100 µM		> 100 µM		> 100 µM
CCCCCCC(=O)CC(=O)C(=O)Nc1ccccc1C		> 100 µM		> 100 µM	> 100 µM		> 100 µM		> 100 µM		> 100 µM		> 100 µM		> 100 µM		> 100 µM		> 100 µM
C=C1CC(CC(=O)C(C)CC2CC(=C)C(=O)O2)OC1=O (stereo unspecified)		49.7 µM		24.1 µM	> 100 µM		> 100 µM		29.7 µM		28.4 µM		22.6 µM		> 100 µM		> 100 µM		33.9 µM
CC(=O)CC(=O)ON(C)C(=O)Cc1ccccc1		> 100 µM		> 100 µM	> 100 µM		> 100 µM		> 100 µM		> 100 µM		> 100 µM				> 100 µM		> 100 µM
Cc1c(C(=O)Nc2ccc(Cl)cc2)nc(N)nc1-c1cccc(Cl)c1		> 100 µM		> 100 µM	> 100 µM		> 100 µM		> 100 µM		> 100 µM		> 100 µM				> 100 µM		
CCOc1cc[n+](C(=C=[N-])C#N)cc1		> 100 µM		> 100 µM	> 100 µM		> 100 µM		> 100 µM		> 100 µM		> 100 µM		> 100 µM		> 100 µM		> 100 µM
O=C(OCc1ccccc1)c1ccccc1-c1c2ccc(=O)cc-2oc2cc(OCc3ccccc3)ccc12		> 100 µM		18.8 µM	55.3 µM				6.44 µM		31.4 µM		31.3 µM		88.2 µM		74 µM		
C(=NCCN=Cc1cccc2ccccc12)c1cccc2ccccc12		> 100 µM		> 100 µM	> 100 µM				> 100 µM		> 100 µM		> 100 µM				> 100 µM		> 100 µM
OCC(O)C(OC1OC(CO)C(O)C(O)C1O)c1nn(-c2ccc(Cl)cc2)c2nc3cc(Cl)ccc3nc12 (stereo unspecified)		> 100 µM		> 100 µM	> 100 µM		> 100 µM		> 100 µM		> 100 µM		> 100 µM		> 100 µM		> 100 µM		> 100 µM
Cc1ccccc1NC(=O)CC(=O)n1nc(-c2ccccc2)c(N=Nc2ccc([N+](=O)[O-])cc2)c1-c1ccccc1		> 100 µM		> 100 µM	34.8 µM		48.3 µM		64.8 µM		75.9 µM		61.5 µM				> 100 µM		> 100 µM
CC1=C(C(=O)NCc2ccccc2)C(c2ccccc2O)C(C(=O)NCc2ccccc2)=C(C)N1		95.2 µM		> 65.9 µM	30.5 µM		39.5 µM		> 100 µM		30.1 µM		31.5 µM		33.9 µM		40.9 µM		34 µM
NC(C(=O)O)c1ccc(C(=O)O)cc1 (stereo unspecified)		> 100 µM		> 100 µM	> 100 µM		> 100 µM		> 100 µM		> 100 µM		> 100 µM				> 100 µM		> 100 µM
N#CC1([N+](=O)[O-])C=C1c1ccccc1 (stereo unspecified)		> 100 µM		70.3 µM	> 100 µM		> 100 µM		> 100 µM		> 100 µM		> 100 µM				> 100 µM		> 100 µM
CC(=O)Nc1ccc(OCC(O)CO)cc1 (stereo unspecified)		> 100 µM		> 100 µM	> 100 µM		> 100 µM		> 100 µM		> 100 µM		> 100 µM		> 100 µM		> 100 µM		> 100 µM
N#CC12CC3(CCC1CCC1(C2)OCCO1)OCCO3 (stereo unspecified)		> 100 µM		> 100 µM	> 100 µM		> 100 µM		> 100 µM		> 100 µM		> 100 µM		> 100 µM		> 100 µM		> 100 µM
CN/N=C(/CC(=O)c1sc(NNC(C)=O)nc1C)C(=O)Nc1ccc(OC)cc1OC		> 100 µM		> 100 µM	> 100 µM		> 100 µM		> 100 µM		> 100 µM		> 100 µM		> 100 µM		> 100 µM		> 100 µM
